Key:
Human recombinant MAO-A = Human recombinant MAO-A (Homo sapiens (Human), UniProt P21397); assay: MAO enzymatic assay, MAO-B selectivity (MAO-A/MAO-B); format: biochemical; settings: selectivity for MAO-B over MAO-A; values given as ranges
Method: (§1) The MAO enzymatic assay was performed according to the fluorometric method described by Matsumoto and colleagues (Matsumoto et al., Clin. Biochem. 1985, 18, 126-129) with the following modifications. Human recombinant MAO-A and MAO-B expressed in insect cells were used. For both assays, test compound and/or vehicle were preincubated with purified enzyme in phosphate buffer pH 7.4 for 15 minutes at 37° C. The reaction was initiated by addition of […] kynuramine. Following a 60 minute incubation period, the reaction was terminated by the addition of 6 N NaOH. The amount of 4-hydroxyquinoline that formed was determined by spectrofluorimetrically at 325 nm/465 nm.
(§2) Results were converted to percent inhibition, and the EC50 (M) for each reaction was determined using the XLfit program from IDBS (ID Business Solutions Ltd., 2 Occam Court, Surrey Research Park, Guildford, Surrey, GU2 7QB UK). The EC50 represents the concentration of a compound where 50% of its maximal effect is observed. The pEC50 is defined as the negative logarithm of the EC50; a higher pEC50 value therefore corresponds to higher potency in the assay.

Human recombinant MAO-B = Human recombinant MAO-B (Homo sapiens (Human), UniProt P27338); assay: MAO-B enzymatic assay (fluorometric, kynuramine); format: biochemical; settings: human recombinant MAO-B expressed in insect cells, 50 μm kynuramine, pH 7.4, 37° C.; values given as ranges; read-out: MAO-B (pEC50) (converted)
Sequence of Human recombinant MAO-B (P27338 whole entry): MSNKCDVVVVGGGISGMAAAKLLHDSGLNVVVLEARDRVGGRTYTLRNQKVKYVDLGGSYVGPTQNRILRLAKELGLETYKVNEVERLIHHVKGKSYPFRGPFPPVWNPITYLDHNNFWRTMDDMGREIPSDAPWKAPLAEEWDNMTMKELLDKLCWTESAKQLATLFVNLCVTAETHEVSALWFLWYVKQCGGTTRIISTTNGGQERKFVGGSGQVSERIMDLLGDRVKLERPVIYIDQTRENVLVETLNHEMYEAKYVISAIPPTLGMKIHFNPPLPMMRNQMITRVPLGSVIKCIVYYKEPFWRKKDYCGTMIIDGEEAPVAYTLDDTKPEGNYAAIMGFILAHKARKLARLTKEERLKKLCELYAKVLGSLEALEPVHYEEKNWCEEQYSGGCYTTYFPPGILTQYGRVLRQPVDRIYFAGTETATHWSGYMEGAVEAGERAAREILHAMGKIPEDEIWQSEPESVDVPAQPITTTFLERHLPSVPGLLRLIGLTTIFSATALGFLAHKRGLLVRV
Method: as §1, §2
Representative compounds of the invention were evaluated in the MAO-B enzymatic assay. Typically, the compounds of the invention show MAO-B inhibitory properties at a concentration of 0.1 to 10 μM, typically at 5-100%.

Sequence of Human recombinant MAO-A (P21397 whole entry): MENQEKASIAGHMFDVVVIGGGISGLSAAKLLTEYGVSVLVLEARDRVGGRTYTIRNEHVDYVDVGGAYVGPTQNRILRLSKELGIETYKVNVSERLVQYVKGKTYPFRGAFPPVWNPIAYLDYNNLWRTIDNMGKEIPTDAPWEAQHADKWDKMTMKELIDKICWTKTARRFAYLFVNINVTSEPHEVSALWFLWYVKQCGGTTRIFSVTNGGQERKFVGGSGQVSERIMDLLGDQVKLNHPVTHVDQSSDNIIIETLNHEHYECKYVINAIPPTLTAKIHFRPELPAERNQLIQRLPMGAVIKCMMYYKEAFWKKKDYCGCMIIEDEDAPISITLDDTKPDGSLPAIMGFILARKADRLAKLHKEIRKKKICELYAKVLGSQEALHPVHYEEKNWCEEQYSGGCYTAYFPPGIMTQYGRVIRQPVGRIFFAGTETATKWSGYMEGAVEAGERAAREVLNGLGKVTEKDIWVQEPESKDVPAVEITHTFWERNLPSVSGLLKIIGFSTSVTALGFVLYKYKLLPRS

Compound | MAO-A/MAO-B (Human recombinant MAO-A) | EC50 (Human recombinant MAO-B) [nM]
CCOC(=O)c1cnc2cc(OCc3cccc(OC)c3)ccc2c1 [Example 9, Ethyl 7-((3-methoxybenzyl)oxy)quinoline-3-carboxylate] | >100-200 | 
CCOC(=O)c1cnc2cc(OCCc3cccc(Cl)c3)ccc2c1 [Example 25, Ethyl 7-(3-chlorophenethoxy)quinoline-3-carboxylate] | >10-100 | 
CCOC(=O)Cc1cnc2cc(OCc3cccc(Cl)c3)ccc2c1 [Example 51, Ethyl 2-(7-((3-chlorobenzyl)oxy)quinolin-3-yl)acetate] |  | 100 to 1000
CCOC(=O)c1cnc2cc(OCc3ccc([N+](=O)[O-])cc3)ccc2c1 [Example 11, Ethyl 7-((4-nitrobenzyl)oxy)quinoline-3-carboxylate] | 1-10 | 
CC(C)(O)c1cnc2cc(OCc3ccc(F)cc3)ccc2c1 [Example 27, 2-(7-((4-Fluorobenzyl)oxy)quinolin-3-yl)propan-2-ol] | >200 | 
CCOC(=O)c1cnc2cc(OCc3ccc(OC)cc3)ccc2c1 [Example 10, Ethyl 7-((4-methoxybenzyl)oxy)quinoline-3-carboxylate] | >10-100 | 
CCOC(=O)c1cnc2cc(OCc3ccc(C)cc3)ccc2c1 [Example 8, Ethyl 7-((4-methylbenzyl)oxy)quinoline-3-carboxylate] | >10-100 | 
CCOC(=O)c1cnc2cc(OCc3cccc([N+](=O)[O-])c3)ccc2c1 [Example 18, Ethyl 7-((3-nitrobenzyl)oxy)quinoline-3-carboxylate] | >10-100 | 
CCOC(=O)c1cnc2cc(OCc3ccc(Cl)cc3)ccc2c1 [Example 1, Ethyl 7-[(4-chlorophenyl)methoxy]quinoline-3-carboxylate] | >10-100 | 

The next lines start with the values.

MAO-A/MAO-B (Human recombinant MAO-A) | EC50 (Human recombinant MAO-B) [nM] | Compound
>100-200 |  | CCOC(=O)c1cnc2cc(OCc3ccc(F)cc3)ccc2c1 [Example 2, Ethyl 7-[(4-fluorophenyl)methoxy]quinoline-3-carboxylate]
>200 |  | CCOC(=O)c1cnc2cc(OCc3cc(F)cc(F)c3)ccc2c1 [Example 15, Ethyl 7-((3,5-difluorobenzyl)oxy)quinoline-3-carboxylate]
>100-200 |  | CCOC(=O)c1cnc2cc(OCc3cccc(C)c3)ccc2c1 [Example 7, Ethyl 7-((3-methylbenzyl)oxy)quinoline-3-carboxylate]
>100-200 |  | CCOC(=O)c1cnc2cc(OCc3cccc(C(F)(F)F)c3)ccc2c1 [Example 5, Ethyl 7-((3-(trifluoromethyl)benzyl)oxy)quinoline-3-carboxylate]
>200 |  | CCOC(=O)c1cnc2cc(OCc3ccc(F)c(F)c3)ccc2c1 [Example 14, Ethyl 7-((3,4-difluorobenzyl)oxy)quinoline-3-carboxylate]
>10-100 |  | CCOC(=O)c1cnc2cc(OCc3ccc(C(F)(F)F)cc3)ccc2c1 [Example 6, Ethyl 7-((4-(trifluoromethyl)benzyl)oxy)quinoline-3-carboxylate]
>10-100 |  | CCOC(=O)c1cnc2cc(OCc3cccc(Cl)c3)ccc2c1 [Example 3, Ethyl 7-[(3-chlorophenyl)methoxy]quinoline-3-carboxylate]
>100-200 |  | CCOC(=O)c1cnc2cc(OCc3cc(F)cc(C(F)(F)F)c3)ccc2c1 [Example 13, Ethyl 7-((3-fluoro-5-(trifluoromethyl)benzyl)oxy)quinoline-3-carboxylate]
>100-200 |  | CCOC(=O)c1cnc2cc(OCc3ccc(F)c(Cl)c3)ccc2c1 [Example 17, Ethyl 7-((3-chloro-4-fluorobenzyl)oxy)quinoline-3-carboxylate]
>200 |  | CCOC(=O)c1cnc2cc(OCc3ccc(F)c(C(F)(F)F)c3)ccc2c1 [Example 12, Ethyl 7-((4-fluoro-3-(trifluoromethyl)benzyl)oxy)quinoline-3-carboxylate]
>200 |  | CCOC(=O)c1cnc2cc(OCc3cc(F)c(F)c(F)c3)ccc2c1 [Example 16, Ethyl 7-((3,4,5-trifluorobenzyl)oxy)quinoline-3-carboxylate]
>10-100 |  | CCOC(=O)c1cnc2cc(OCCc3cccc(F)c3)ccc2c1 [Example 24, Ethyl 7-(3-fluorophenethoxy)quinoline-3-carboxylate]
1-10 |  | CCOC(=O)c1cnc2cc(OCc3cccc(F)c3)ccc2c1 [Example 4, Ethyl 7[(3-fluorophenyl)methoxy]quinoline-3-carboxylate]

Reference: patent US9675605B2, “Substituted naphthyridine and quinoline compounds as MAO inhibitors” (DART NEUROSCIENCE (CAYMAN) LTD., priority 2013, dated 2017)
